{"source": "patent US20100009970A1", "about": "“COMPOSITIONS AND METHODS FOR TREATMENT OF VIRAL DISEASES” (Combinatorx (Singapore) Pte. Ltd., priority 2008, published 2010)", "note": "pIC50: −log10 of the molar value. Where a name gives a salt, the structure may show the parent alone.", "data": [{"system": "Huh7 cells expressing a subgenomic RNA replicon of Con1 (genotype 1b) sequence origin", "test": "microbe, parasite or virus in culture", "conditions": "Hepatitis C virus, Huh-7", "values": [{"smiles": "Oc1ccc(O)cc1", "note": "[Hydroquinone, reference compound]", "pIC50": 4.85}, {"smiles": "CCCCC(CC)COC(=O)/C=C/c1ccc(OC)cc1", "note": "(centres unmarked) [Octyl Methoxycinnamate, reference compound]", "pIC50": 5.91}, {"smiles": "C[C@]12CCC(=O)C=C1CC[C@@H]1[C@@H]2CC[C@@]2(C)[C@H]1CC[C@]2(C)O", "note": "[Methyltestosterone, methyltestosterone, reference compound]", "pIC50": 4.72}, {"smiles": "Nc1ccn([C@@H]2O[C@H](CO)[C@@H](O)C2(F)F)c(=O)n1", "note": "[Gemcitabine (e.g., hydrochloride), Gemcitabine, reference compound]", "pIC50": 7.22}, {"smiles": "CCc1c2c(nc3ccc(OC(=O)N4CCC(N5CCCCC5)CC4)cc13)-c1cc3c(c(=O)n1C2)COC(=O)[C@]3(O)CC", "note": "[Irinotecan (e.g., hydrochloride), irinotecan (CPT-11), reference compound]", "pIC50": 5.81}, {"smiles": "CN1CCN(CCCN2c3ccccc3Sc3ccc(C(F)(F)F)cc32)CC1", "note": "[Trifluoperazine (e.g., hydrochloride), Trifluoperazine, reference compound]", "pIC50": 5.30}, {"smiles": "Cc1c(O)cccc1C(=O)N[C@@H](CSc1ccccc1)[C@H](O)CN1C[C@H]2CCCC[C@H]2C[C@H]1C(=O)NC(C)(C)C", "note": "[Nelfinavir (e.g., mesylate), nelfinavir, reference compound]", "pIC50": 5.37}, {"smiles": "C/C=C(/C)C(=O)O[C@H]1C(C)=C2[C@H]([C@@H]1OC(=O)CCCCCCC)[C@@](C)(OC(C)=O)C[C@H](OC(=O)CCC)[C@@]1(O)[C@H]2OC(=O)[C@@]1(C)O", "note": "[Thapsigargin, reference compound]", "pIC50": 7.95}, {"smiles": "C[C@H]1[C@H](OC(=O)CCC(=O)O)O[C@@H]2O[C@@]3(C)CC[C@H]4[C@H](C)CC[C@@H]1[C@@]24OO3", "note": "[Artesunate, artesunate, reference compound]", "pIC50": 5.43}, {"smiles": "Nc1nc(Cl)nc2c1ncn2[C@H]1C[C@H](O)[C@@H](CO)O1", "note": "[Cladribine, 2-chloro-2′-deoxyadenosine, reference compound]", "pIC50": 6.95}, {"smiles": "C[C@]12CC[C@H](O)CC1=CC[C@@H]1[C@@H]2CC[C@]2(C)C(=O)CC[C@@H]12", "note": "[Dehydroepiandrosterone, reference compound]", "pIC50": 4.95}, {"smiles": "CN1C[C@H](C(=O)N[C@]2(C)O[C@@]3(O)[C@@H]4CCCN4C(=O)[C@H](Cc4ccccc4)N3C2=O)C[C@@H]2c3cccc4[nH]cc(c34)C[C@H]21", "note": "[Dihydroergotamine (e.g., mesylate), dihydroergotamine, reference compound]", "pIC50": 4.64}, {"smiles": "CCN(CCCCOC(=O)c1ccc(OC)c(OC)c1)C(C)Cc1ccc(OC)cc1", "note": "(centres unmarked) [Mebeverine (e.g., hydrochloride), Mebeverine, reference compound]", "pIC50": 4.83}, {"smiles": "CCN(CC)CCCC(C)Nc1ccnc2cc(Cl)ccc12", "note": "(centres unmarked) [Chloroquine (e.g., phosphate), Chloroquine, reference compound]", "pIC50": 5.32}, {"smiles": "CC(C)C(C(=O)OC(C#N)c1cccc(Oc2ccccc2)c1)c1ccc(Cl)cc1", "note": "(centres unmarked) [Fenvalerate]", "pIC50": 4.72}, {"smiles": "C#C[C@]1(O)CC[C@H]2[C@@H]3CCc4cc(OC5CCCC5)ccc4[C@H]3CC[C@@]21C", "note": "[Quinestrol, reference compound]", "pIC50": 5.27}, {"smiles": "O=C1C(CC[C@@H](O)c2ccc(F)cc2)[C@@H](c2ccc(O)cc2)N1c1ccc(F)cc1", "note": "(some centres unmarked) [Ezetimibe, ezitamibe, reference compound]", "pIC50": 5.38}, {"smiles": "O=C(O)Cc1cc(I)c(Oc2ccc(O)c(I)c2)c(I)c1", "note": "[Tiratricol, reference compound]", "pIC50": 4.81}, {"smiles": "C[C@@H]1CC[C@H]2[C@@H](C)C(=O)O[C@@H]3O[C@]4(C)CC[C@@H]1[C@]32OO4", "note": "[Artemisinin, artemisinin, reference compound]", "pIC50": 5.35}, {"smiles": "COc1cc(C=O)ccc1O", "note": "[Vanillin (e.g., acetate), Vanillin]", "pIC50": 5.43}, {"smiles": "COC(=O)[C@H]1[C@H]2C[C@@H]3c4[nH]c5cc(OC)ccc5c4CCN3C[C@H]2C[C@@H](OC(=O)c2cc(OC)c(OC)c(OC)c2)[C@@H]1OC", "note": "[Reserpine, reference compound]", "pIC50": 4.60}, {"smiles": "CCN(CC)C(=S)SSC(=S)N(CC)CC", "note": "[Disulfiram, reference compound]", "pIC50": 5.26}, {"smiles": "CO[C@H]1/C=C/O[C@@]2(C)Oc3c(C)c(O)c4c(c3C2=O)C2=NC3(CCN(CC(C)C)CC3)NC2=C(NC(=O)/C(C)=C\\C=C\\[C@H](C)[C@H](O)[C@@H](C)[C@@H](O)[C@@H](C)[C@H](OC(C)=O)[C@@H]1C)C4=O", "note": "[Rifabutin, reference compound]", "pIC50": 4.76}, {"smiles": "CCCOc1ccc2nc(NC(=O)OC)[nH]c2c1", "note": "[Oxibendazole, reference compound]", "pIC50": 6.52}, {"smiles": "C=C1C[C@@H]2[C@H](CC[C@]3(C)C(=O)CC[C@@H]23)[C@@]2(C)C=CC(=O)C=C12", "note": "[Exemestane, reference compound]", "pIC50": 4.54}, {"smiles": "CCCCC1C(=O)NN(c2ccccc2)C1=O", "note": "(centres unmarked) [Mofebutazone, mofebutazone, reference compound]", "pIC50": 4.84}, {"smiles": "CC[C@@]1(O)C(=O)OCc2c1cc1n(c2=O)Cc2cc3c(CN(C)C)c(O)ccc3nc2-1", "note": "[Topotecan (e.g., hydrochloride), topotecan, reference compound]", "pIC50": 7.02}, {"smiles": "O=c1[nH]c(=O)n([C@H]2C[C@H](O)[C@@H](CO)O2)cc1C(F)(F)F", "note": "[Trifluridine, trifluridine, reference compound]", "pIC50": 6.42}, {"smiles": "C/C=C/C/C=C/CCC(=O)[C@H]1O[C@H]1C(N)=O", "note": "[Cerulenin, reference compound]", "pIC50": 4.79}, {"smiles": "C[C@@]1(CO)[C@H](O)CC[C@@]2(C)[C@H]1CC[C@H]1C[C@@H]3C[C@@]12CC[C@]3(O)CO", "note": "[Aphidicolin, aphidicolin, reference compound]", "pIC50": 5.77}, {"smiles": "CCc1cn([C@H]2C[C@H](O)[C@@H](CO)O2)c(=O)[nH]c1=O", "note": "[Edoxudine, edoxudine, reference compound]", "pIC50": 5.71}, {"smiles": "CN(C)CCOc1ccc(/C(=C(/CCCl)c2ccccc2)c2ccccc2)cc1", "note": "[Toremifene, reference compound]", "pIC50": 4.80}, {"smiles": "O=c1[nH]c(=O)n([C@H]2C[C@H](O)[C@@H](CO)O2)cc1F", "note": "[Floxuridine, floxuridine, reference compound]", "pIC50": 8.35}, {"smiles": "CCOC(=O)c1c(CSc2ccccc2)n(C)c2cc(Br)c(O)c(CN(C)C)c12", "note": "[Arbidol, arbidol, reference compound]", "pIC50": 4.91}, {"smiles": "CCCCOc1ccc(CC(=O)NO)cc1", "note": "[Bufexamac, bufexamac, reference compound]", "pIC50": 5.08}, {"smiles": "COC(=O)Nc1nc2ccc([S+]([O-])c3ccccc3)cc2[nH]1", "note": "(centres unmarked) [Oxfendazole, reference compound]", "pIC50": 5.14}, {"smiles": "CC(C=NNC(=N)N)=NNC(=N)N", "note": "[Methylglyoxal bis(guanylhydrazone) dihydrochloride hydrate, reference compound]", "pIC50": 4.97}, {"smiles": "CC(=O)[C@H]1CC[C@H]2[C@@H]3C=CC4=CC(=O)CC[C@@]4(C)[C@@H]3CC[C@]12C", "note": "[Dydrogesterone, reference compound]", "pIC50": 5.56}, {"smiles": "CN1[C@@H]2CC[C@H]1C[C@@H](OC1c3ccccc3CCc3ccccc31)C2", "note": "[Deptropine (e.g., citrate), deptropine, reference compound]", "pIC50": 4.95}, {"smiles": "CC1=C(/C=C/C(C)=C/C=C/C(C)=C/C=C/C=C(C)/C=C/C=C(C)/C=C/C2=C(C)CCCC2(C)C)C(C)(C)CCC1", "note": "[Beta-Carotene]", "pIC50": 4.73}, {"smiles": "CO[C@H]1/C=C/O[C@@]2(C)Oc3c(C)c(O)c4c(O)c(c5c(nc6cc(C)ccn65)c4c3C2=O)NC(=O)/C(C)=C\\C=C\\[C@H](C)[C@H](O)[C@@H](C)[C@@H](O)[C@@H](C)[C@H](OC(C)=O)[C@@H]1C", "note": "[Rifaximin, reference compound]", "pIC50": 4.71}, {"smiles": "Nc1nc(F)nc2c1ncn2[C@@H]1O[C@H](CO)[C@@H](O)[C@@H]1O", "note": "[Fludarabine, reference compound]", "pIC50": 5.35}, {"smiles": "Nc1ccn([C@@H]2O[C@H](CO)[C@@H](O)[C@@H]2O)c(=O)n1", "note": "[Cytarabine, reference compound]", "pIC50": 6.93}, {"smiles": "CCC(C)(C)C(=O)O[C@H]1C[C@@H](C)C=C2C=C[C@H](C)[C@H](CC[C@@H]3C[C@@H](O)CC(=O)O3)[C@H]21", "note": "[Simvastatin, simvastatin, reference compound]", "pIC50": 4.67}, {"smiles": "COc1cc(/C=C/C(=O)CC(=O)/C=C/c2ccc(O)c(OC)c2)ccc1O", "note": "[Curcumin, curcumin]", "pIC50": 5.06}, {"smiles": "Nc1ccccc1OCCCCCOc1ccccc1N", "note": "[2,2′-(Pentamethylenedioxy)dianiline, reference compound]", "pIC50": 6.57}, {"smiles": "CC(C)C[C@H]1C(=O)N2CCC[C@H]2[C@]2(O)O[C@](NC(=O)[C@@H]3C=C4c5cccc6[nH]c(Br)c(c56)C[C@H]4N(C)C3)(C(C)C)C(=O)N12", "note": "[Bromocriptine (e.g., mesylate), bromocriptine, reference compound]", "pIC50": 5.47}, {"smiles": "CC(C(O)c1ccc(O)cc1)N1CCC(Cc2ccccc2)CC1", "note": "(centres unmarked) [Ifenprodil (e.g., tartrate), Ifenprodil, reference compound]", "pIC50": 5.33}, {"smiles": "COCCCC/C(=N\\OCCN)c1ccc(C(F)(F)F)cc1", "note": "[Fluvoxamine (e.g., maleate), Fluvoxamine, reference compound]", "pIC50": 4.62}, {"smiles": "CNC(=O)Oc1cccc2ccccc12", "note": "[Carbaryl]", "pIC50": 5.02}, {"smiles": "CN(C)CCCOc1nn(Cc2ccccc2)c2ccccc12", "note": "[Benzydamine (e.g., hydrochloride), benzydamine, reference compound]", "pIC50": 5.05}, {"smiles": "C[C@@H]1C[C@@H]([C@H](O)CC2CC(=O)NC(=O)C2)C(=O)[C@@H](C)C1", "note": "[Cycloheximide, reference compound]", "pIC50": 6.74}, {"smiles": "CC(CN(C)C)CN1c2ccccc2CCc2ccccc21", "note": "(centres unmarked) [Trimipramine (e.g., maleate), Trimipramine, reference compound]", "pIC50": 4.81}, {"smiles": "CCCCCCCCCCCCCCOc1ccc(C(=O)O)o1", "note": "[TOFA, 5-(tetradecyloxy)-2-furancarboxylic acid, reference compound]", "pIC50": 5.26}, {"smiles": "CCC(C)(C)c1ccc(CC(C)CN2C[C@@H](C)O[C@@H](C)C2)cc1", "note": "(some centres unmarked) [Amorolfine (e.g., hydrochloride), amorolfine, reference compound]", "pIC50": 5.79}, {"smiles": "C/C=C(/C(=C/C)c1ccc(O)cc1)c1ccc(O)cc1", "note": "[Dienestrol, reference compound]", "pIC50": 4.78}]}]}
